Measurements taken from patent US20260234188A1, “CHEMOKINE-BINDING PEPTIDES” (Oxford University Innovation Limited, priority 2022, published 2026).
“Also recorded” adds a separate entry of the source.

system: panel of up to 42 human chemokines; test: Phage-display next generation sequencing screen of overlapping hexadecapeptide libraries, chemokines displayed on streptavidin beads; type: binding; details: log2E greater than 5, chemokines named by first part of UniProt Entry Name;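 further: chemokine listed when log2 fold enrichment exceeds 5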
Method in brief: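 Phage-display libraries of 55662 overlapping hexadecapeptides from tick and viral chemokine-binding proteins, human chemokines and chemokine receptors screened against up to 42 human chemokines, with hits found by next-generation sequencing. Peptides mapped to parent-protein position with log2 fold enrichment; regions of interest where cumulative residue log2 E exceeds the 95% upper CI of the protein median.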

| Substance | Chemokines Bound |
| --- | --- |
| CR23915 (TVFLSIFYSVIFAIGL) | CCL17, CCL18,; also recorded: CCL19, CCL2,; also recorded: CCL20, CCL22,; also recorded: CCL25, CCL28,; also recorded: CCL8, X3CL1,; also recorded: CXL10, CXL11,; also recorded: SDF1, CXL13,; also recorded: CXL14, IL8 |
| CR23943 (TVITFALYVGQFLAYV) | CCL2, CCL20,; also recorded: CCL22, X3CL1,; also recorded: CXL10, CXL11,; also recorded: SDF1, CXL13 |
| CR23945 (TVITFSLYVGQFLAYV) | CCL1, CCL15,; also recorded: CCL20, CCL22,; also recorded: CCL28, CXL10,; also recorded: CXL11, SDF1,; also recorded: CXL13 |
| CR23947 (TVKLIFAIVVAYFLSW) | CCL17, CCL20,; also recorded: CCL22, CCL28,; also recorded: SDF1, CXL14 |
| CR23950 (TVLATFKILICIVWGV) | CCL18, CCL19,; also recorded: CCL20, CCL25,; also recorded: SDF1, IL8 |
| CR23958 (TVLLSWKVLLTMVWGA) | CCL1, CCL18,; also recorded: CCL20, CCL25,; also recorded: CCL28, CXL10,; also recorded: CXL11, SDF1 |
| CR24063 (TWNLVLSQFFSILATM) | CCL1, CCL22,; also recorded: CXL11, CXL14 |
| CR24107 (TYIILLLTWFAGLIFS) | CCL22, CCL25,; also recorded: CXL11 |
| CR24347 (VAYSLIFLLGVIGNVL) | CCL18, CCL19,; also recorded: CCL20, CXL11,; also recorded: CXL14 |
| CR24367 (VCILVWLLAFCVSLPD) | CCL11, CCL17,; also recorded: CCL18, CCL19,; also recorded: CCL20, CCL22,; also recorded: CCL25, CCL28,; also recorded: CXL10, CXL11,; also recorded: SDF1, CXL13,; also recorded: CXL14, IL8 |
| CR24556 (VFGTVFLSIFYSVIFA) | CCL1, CCL17,; also recorded: CCL18, CCL19,; also recorded: CCL2, CCL20,; also recorded: CCL22, CCL25,; also recorded: CCL28, X3CL1,; also recorded: CXL10, CXL11,; also recorded: SDF1, CXL13,; also recorded: CXL14, IL8 |
| CR24593 (VFLLSLLGNSLVMLVI) | CCL22, CCL25, and CXL10, CXL11, and SDF1, CXL13, and IL8 |
| CR24594 (VFLLSLVGNSLVLWVL) | CCL22, X3CL1, and CXL11, CXL13, and IL8 |
| CR24612 (VFLSIFYSVIFAIGLV) | CCL17, CCL18,; also recorded: CCL22, CCL25,; also recorded: CCL28, X3CL1,; also recorded: CXL10, CXL11,; also recorded: SDF1, CXL13,; also recorded: CXL14 |
| CR24702 (VFYSLLFVFSLLGNSL) | CCL17, CCL18, and CCL19, CCL20, and CCL22, CCL25, and CCL5, X3CL1, and CXL11, CXL14, and IL8 |
| CR24707 (VGALGNSLVILVYWYC) | CCL17, CCL18,; also recorded: CCL19, CCL20 |
| CR24900 (VIGFLVPLLAMSFCYL) | CCL15, CCL17,; also recorded: CCL18 |
| CR24960 (VIMMTWFYAFFYSTVQ) | CCL1, CCL17,; also recorded: CCL18, CCL2,; also recorded: CCL22, CCL25,; also recorded: CCL28, CCL5,; also recorded: X3CL1, CXL11,; also recorded: CXL13, IL8 |
| CR24989 (VITFCLYVGQFLAYVR) | CCL17, CCL18,; also recorded: CCL19, CCL20,; also recorded: CCL25, X3CL1,; also recorded: CXL10, SDF1,; also recorded: CXL14 |
| CR25001 (VITWLVAVFASVPGII) | CCL1, CCL19,; also recorded: CCL2, CXL11,; also recorded: CXL14 |
| CR25151 (VLGDFLCKLLNMIFSI) | CCL18, CCL2, and CCL28, X3CL1, and CXL10, CXL14, and IL8 |
| CR25165 (VLGLLLNSLALWVFAA) | CCL19, CCL2,; also recorded: CCL20, CCL28 |

| Substance | Chemokines Bound |
| --- | --- |
| CR25167 (VLGLLLNSLALWVFSS) | CCL11, CCL17,; also recorded: CCL18, CXL11,; also recorded: CXL14 |
| CR25244 (VLLSWKVLLTMVWGAA) | CCL11, CCL17,; also recorded: CCL18, CCL19,; also recorded: CCL2, CCL20,; also recorded: CCL22, CCL25,; also recorded: CCL28, X3CL1,; also recorded: CXL10, CXL11,; also recorded: SDF1, CXL13,; also recorded: CXL14, IL8 |
| CR25357 (VLTLKVILGFFLPFVV) | CCL1, CCL17,; also recorded: CCL18, CCL19,; also recorded: CCL28, CXL10,; also recorded: CXL11, SDF1,; also recorded: CXL13, CXL14 |
| CR25375 (VLVIGSLVARWLLGIQ) | CCL18, CCL19,; also recorded: CCL20 |
| CR25407 (VLYFIADEVYTVLLSW) | CCL15, CCL17, and CCL18, CCL19, and CCL20, CCL25, and X3CL1, CXL10, and CXL11, CXL13, and IL8 |
| CR25802 (VSILVWLLAFSVSLPD) | CCL15, CCL18, and CCL19, CCL20, and CCL28, CXL10, and IL8 |
| CR26001 (VTLTSLAVWGLSLLFA) | CCL11, CCL2,; also recorded: CCL28, SDF1 |
| CR26036 (VTSLLIWVISLLVSLP) | CCL28, X3CL1, and SDF1, CXL14, and IL8 |
| CR26041 (VTSVITWLVAVFASVP) | CCL2, X3CL1,; also recorded: CXL11, IL8 |
| CR26093 (VVCILVWLLAFCVSLP) | CCL20, X3CL1,; also recorded: CXL10, IL8 |
| CR26155 (VVLIFLLSWLPYNLVL) | CCL15, CCL28,; also recorded: CXL10, CXL13 |
| CR26231 (VVTSVITWLVAVFASV) | CCL11, CCL17, and CCL18, CCL2, and CCL20, CCL25, and CCL8, CXL10, and CXL11, CXL14, and IL8 |
| CR26232 (VVTSVITWVVAVFASL) | CCL17, CCL18,; also recorded: CCL28, CCL8,; also recorded: X3CL1, CXL10,; also recorded: SDF1, CXL14 |
| CR26306 (VWLMAIVGTFLNVLVI) | CCL22, CXL11,; also recorded: CXL13 |
| CR26308 (VWLMCIVGTFLNVLVI) | CCL18, CCL20, and CCL22, CCL28, and CXL10, CXL11, and SDF1 |
| CR26309 (VWLMSIVGTFLNMLVI) | CCL18, CXL10,; also recorded: CXL11, CXL13,; also recorded: CXL14 |
| CR26310 (VWLMSIVGTFLNVLVI) | CCL17, CCL18,; also recorded: CCL2, CXL10,; also recorded: CXL11, SDF1,; also recorded: CXL14, IL8 |
| CR26327: chemokine binding peptide of Table 5A used in FIG. 5 combinations (VWVASILSSILDTIFH) | CCL2, CXL11, and IL8 |
| CR26399 (VYTVLLSWKVLLTLVW) | CCL1, CCL17, and CCL18, CCL19, and CCL20, CCL22, and CCL25, CCL28, and X3CL1, CXL10, and CXL11, SDF1, and CXL13, CXL14, and IL8 |
| CR26500 (WFLPIMYSIICFVGLL) | CCL28, SDF1,; also recorded: CXL14 |
| CR26513 (WGAAPVIMMTWFYAFF) | CCL11, CCL17, and CCL18, CCL19, and CCL20, CCL22, and CCL25, CCL28, and X3CL1, CXL10, and CXL11, CXL13, and IL8 |
| CR26521 (WGLALLFALPDFIFLS) | CCL15, CXL13, and IL8 |

| Substance | Chemokines Bound |
| --- | --- |
| CR26536 (WGWVLGDFLCKLLNMI) | CCL1, CCL11,; also recorded: CCL17, CCL18,; also recorded: CCL20, CCL22,; also recorded: CCL28, CCL5,; also recorded: X3CL1, CXL10,; also recorded: SDF1, IL8 |
| CR26547 (WHWVFGSFLAKMVSTL) | CCL1, X3CL1,; also recorded: CXL14 |
| CR26592 (WKLLAEIYEYLFFFSF) | CCL19, CCL20,; also recorded: CCL22, CXL14 |
| CR26630 (WLMCIVGTFLNVLVIT) | CCL1, CCL17,; also recorded: CCL18, CCL19,; also recorded: CCL20, CCL22,; also recorded: CCL28, CCL8,; also recorded: X3CL1, CXL10,; also recorded: CXL11, SDF1,; also recorded: CXL14, IL8 |
| CR26633 (WLMSIVGTFLNMLVIT) | CCL11, CCL17,; also recorded: CCL18, CCL19,; also recorded: CCL20, CCL22,; also recorded: CCL25, CCL28,; also recorded: X3CL1, CXL10 |
| CR26655 (WMNILWAWFIFWWPHG) | CCL17, CCL18,; also recorded: CCL19, CCL20,; also recorded: CCL28, CXL10,; also recorded: SDF1, IL8 |
| CR26667 (WNNFHTIMRNILGLVL) | CCL17, CCL18,; also recorded: CXL14 |
| CR26721 (WSLVFMAIERINYFAY) | CCL17, CCL18,; also recorded: CXL10 |
| CR26762 (WVASILSSILDTIFHK) | CCL17, CCL18,; also recorded: X3CL1, CXL10,; also recorded: CXL11, IL8 |
| CR26799 (WVFIFSSIQLATVVFL) | CCL18, CCL19, and CCL20, CCL22, and CCL28, X3CL1, and CXL10, CXL11, and IL8 |
| CR26801 (WVFIFSSIQLCTVVFL) | CCL1, CCL17,; also recorded: CCL18, CCL19,; also recorded: CCL20, CCL28,; also recorded: X3CL1, SDF1 |
| CR26817 (WVLGDFLCKLLNMIFS) | CCL1, CCL17, and CCL18, CCL20, and CCL28, X3CL1, and CXL10, CXL11, and CXL13, CXL14, and IL8 |
| CR26831 (WVLVIGSLVARWLLGI) | CCL17, CCL2,; also recorded: X3CL1, CXL10 |
| CR26850 (WVVVFQFQHIMVGLIL) | CCL1, CCL19, and CCL20, CCL28, and SDF1 |
| CR27049 (YDLFIGIKIVYAFLWG) | CCL1, CCL18, and CCL22, CCL25, and IL8 |
| CR27050 (YDLFIGIKIVYCFLWG) | CCL1, CCL17,; also recorded: CCL19, CCL20,; also recorded: CCL22, X3CL1,; also recorded: CXL10, CXL11,; also recorded: SDF1, CXL13,; also recorded: CXL14, IL8 |
| CR27051 (YDLFIGIKIVYSFLWG) | CCL18, CCL2,; also recorded: CCL20, CCL25,; also recorded: CCL28, CXL10,; also recorded: CXL11, CXL14 |
| CR27428 (YLKAFLAAVLGWHLAP) | CCL17, CCL18,; also recorded: CCL2, CCL20,; also recorded: X3CL1, CXL10,; also recorded: CXL11, SDF1,; also recorded: CXL14 |
| CR27433 (YLLDFILALVGNTLAL) | CCL18, CCL19,; also recorded: CCL20, CCL25,; also recorded: CCL28, CXL10,; also recorded: CXL11 |
| CR27448 (YLLNLAISDLLFVFSL) | CCL1, CCL2,; also recorded: CXL11, IL8 |
| CR27514 (YLYVYLDIFSVVSVSL) | CCL1, CCL19, and SDF1 |
| CR27677 (YSAFLSGMTSLLLVLL) | CCL17, CCL18,; also recorded: CCL20, CCL25,; also recorded: CXL10, CXL14 |
